According to PubChem BioAssay (NCI):
Several values for one entry are separate records, joined by “and”; a condition that tells them apart may be missing. Equal values may be shown once.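 Grown in 96-well plates, cells were treated for 48 hours with each compound at five concentrations. Insufficient inhibition: endpoint recorded as highest concentration tested. Abbreviation: GI50, concentration required for 50% inhibition of growth. At the TGI there is no net growth.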

Experiments:
Assay in all cases: NCI anticancer screen, dose series, 48 h
[1] = tested on: COLO 205 colon
[2] = tested on: EKVX NSCLC
[3] = tested on: HCT-116 colon
[4] = tested on: HOP-92 NSCLC
[5] = tested on: K-562 leukemia
[6] = tested on: NCI-H226 lung
[7] = tested on: RXF 393 renal
[8] = tested on: SK-MEL-28 melanoma
[9] = tested on: SK-OV-3 ovarian
[10] = tested on: MDA-MB-435

Row | SMILES | GI50 [1] [µM] | TGI [1] | GI50 [2] [nM] | TGI [2] [µM] | GI50 [3] [µM] | TGI [3] | GI50 [4] [µM] | TGI [4] [µM] | GI50 [5] [nM] | TGI [5] [µM] | GI50 [6] [µM] | TGI [6] | GI50 [7] [nM] | TGI [7] [µM] | GI50 [8] [µM] | TGI [8] | GI50 [9] [µM] | TGI [9] | GI50 [10] [µM] | TGI [10] [µM]
1 | CCC[CH2][Ge]([CH2]CCC)([CH2]CCC)[O]C(=O)C(OC)c1ccccc1 (stereo not drawn) | 45.8 | > 100 µM | 16400 | > 100 | 16.5 | > 100 µM | 9.53 | 98.3 | 2070 | > 100 | 92.7 | > 100 µM | 6900 | 27.8 | 52.3 | > 100 µM | > 94.2 | > 100 µM |  | 
2 | Cc1ccc(C2(O)CC(c3ccc([N+](=O)[O-])o3)=NN2C(=O)COc2ccccc2Cl)cc1 (stereo not drawn) |  | 24.1 µM |  | 28.8 |  | > 87.4 µM |  | > 95.3 |  | > 100 |  | > 100 µM |  |  |  | 45 µM |  | > 100 µM |  | 
3 | NCCCC1NC(=O)/C(=C(O)/C=C/C2CCC[C@@H]2CC2SCCS2)C1=O (stereo partly drawn) |  | > 100 µM |  | > 100 |  | > 100 µM |  | 99.8 |  | > 100 |  | > 100 µM |  | > 100 |  | > 100 µM |  | > 100 µM |  | 
4 | CCOC(=O)C(Cc1ccccc1)NC(=O)OC(C)(C)C (stereo not drawn) |  | > 100 µM |  |  |  | > 100 µM |  | > 100 |  | > 100 |  |  |  |  |  | > 100 µM |  | > 100 µM |  | 
5 | CCc1ccc(Nc2cc(=O)[nH]c(=S)n2C)cc1 |  | > 100 µM |  | > 100 |  | > 100 µM |  | > 100 |  | > 100 |  | > 100 µM |  | > 100 |  |  |  | > 100 µM |  | 
6 | Nc1ncnc2c(C3OC(CO)C(O)C3O)scc12 (stereo not drawn) |  | 1.15 µM and 1.23 µM | 269 | 4.29 |  | 1.12 µM and 2.72 µM |  | 0.529 |  | 0.03 |  | 0.731 µM |  | 1.39 | 1.2 | 2.64 µM and 7.04 µM |  | 0.0357 µM and 0.075 µM |  | 
7 | CO/N=C(/COc1c(-c2ccccc2)oc2ccccc2c1=O)c1ccc(OC)cc1 | > 100 | > 100 µM | > 100000 | > 100 | > 100 | > 100 µM |  |  | 42500 | > 100 | > 100 | > 100 µM | > 100000 | > 100 | > 100 | > 100 µM | > 100 | > 100 µM | 30.7 | > 100
8 | CN(C)CC/C(=N\Nc1ccc(Cl)c(Cl)c1)c1ccccc1 |  | 3.15 µM |  | 3.93 |  | 3.19 µM |  |  |  | 4.68 |  |  |  | 8.47 |  | 6.43 µM |  | 14.1 µM |  | 
9 | CCC[CH2][Sn]([CH2]CCC)([O]C(=O)c1cc(OC)c(OC)cc1OC)[O]C(=O)c1cc(OC)c(OC)cc1OC | 1.25 | 2.6 µM | 1640 | 4.83 | 1.51 | 2.85 µM |  |  | 324 | 2.97 | 2.21 | 8.26 µM | 327 | 1.47 | 0.971 | 2.23 µM | 2.14 | 5.51 µM |  | 
10 | Cc1ccccc1-c1c(N)nc(N)nc1C(=O)Nc1nccs1 |  | > 100 µM |  | > 100 |  | > 100 µM |  | > 100 |  | > 100 |  | > 100 µM |  | > 100 |  | > 100 µM |  | > 100 µM |  | 
11 | CCC1(C(=O)OC)CCc2c(OC)ccc(OC)c2C1=O (stereo not drawn) |  | > 100 µM |  | > 100 |  | > 100 µM |  |  |  | > 100 |  |  |  |  |  | > 100 µM |  | > 100 µM |  | 
12 | O=C1[C@@H]2C3SC(c4ccccc43)[C@@H]2C(=O)N1c1ccccc1 |  | > 100 µM |  | > 100 |  | > 100 µM |  | > 100 |  | > 100 |  | > 100 µM |  | > 100 |  | > 100 µM |  | > 100 µM |  | 
13 | O=C(CC(=O)Nc1ccccc1O)Nc1ccccc1O |  | 33.2 µM |  | > 100 |  | 27.5 µM |  | > 100 |  | 25.7 |  | > 100 µM |  |  |  | 27.4 µM |  | > 100 µM |  | 
14 | COc1cc(C(=O)C/C(CCC(=O)Nc2ccc(Cl)cc2Cl)=N/NC(=O)C(N)=O)ccc1O |  | > 100 µM |  | > 100 |  | > 100 µM |  | > 100 |  | > 100 |  | > 100 µM |  |  |  | > 100 µM |  | > 100 µM |  | 
15 | CC(C)(C)OC(=O)NC1CCC[C@H]1O (stereo partly drawn) |  |  |  | > 100 |  | > 100 µM |  | > 100 |  | > 100 |  | > 100 µM |  | > 100 |  | > 100 µM |  | > 100 µM |  | 
16 | Cc1ccccc1NC(=O)C1C(=O)N(c2ccccc2C)C(=O)/C1=N\N (stereo not drawn) |  | > 100 µM |  | > 100 |  | > 100 µM |  | > 100 |  | > 100 |  | > 100 µM |  | > 100 |  | > 100 µM |  | > 100 µM |  | 

Row | SMILES | GI50 [1] [µM] | TGI [1] | GI50 [2] [nM] | TGI [2] [µM] | GI50 [3] [µM] | TGI [3] | GI50 [4] [µM] | TGI [4] [µM] | GI50 [5] [nM] | TGI [5] [µM] | GI50 [6] [µM] | TGI [6] | GI50 [7] [nM] | TGI [7] [µM] | GI50 [8] [µM] | TGI [8] | GI50 [9] [µM] | TGI [9] | GI50 [10] [µM] | TGI [10] [µM]
17 | O=C(/C=C/c1ccccc1O)c1cccnc1 |  |  |  | > 100 |  | > 100 µM |  |  |  | > 100 |  | > 100 µM |  | > 100 |  | > 100 µM |  | > 100 µM |  | 
18 | Nc1ccc2c(c1)CC1c3ccccc3C(C2)c2ccccc21 |  | > 100 µM |  |  |  | > 100 µM |  | > 100 |  | > 100 |  |  |  | > 100 |  |  |  | > 100 µM |  | 
19 | COc1cc2ccnc(-c3c4ccccc4c(N)c4c(OC)c(OC)ccc34)c2cc1OC |  | 3.09 µM |  | 24.2 |  |  |  | 9.35 |  | 7.98 |  | 5.66 µM |  | 6.87 |  | 6.92 µM |  | 20.4 µM |  | 
20 | O=C(O)CCCCCO |  | > 100 µM |  | > 100 |  | > 100 µM |  | > 100 |  | > 100 |  | > 100 µM |  | > 100 |  | > 100 µM |  | > 100 µM |  | 
21 | CC1=C(C(=O)CC(=O)C(=O)Nc2ccccc2)Sc2ccccc2N1 |  | > 100 µM |  | > 100 |  | > 100 µM |  | > 100 |  | > 100 |  | > 100 µM |  | > 100 |  | > 100 µM |  | > 100 µM |  | 
22 | N#CCN1CCOCCOCCN(CC#N)CCOCCOCC1 |  | > 100 µM |  | > 100 |  | > 100 µM |  | > 100 |  | > 100 |  | > 100 µM |  | > 100 |  | > 100 µM |  |  |  | 
23 | CCOC(=O)N1N=NC2C3OC(C[C@@]3(C#N)OC(C)=O)[C@H]21 (stereo partly drawn) |  | > 100 µM |  | > 100 |  | > 100 µM |  | > 100 |  | > 100 |  | > 100 µM |  | > 100 |  | > 100 µM |  | > 100 µM |  | 
24 | CC(=O)C1C(=O)C(=O)N(c2ccccc2N2C(=O)C(=O)C(C(C)=O)C2=O)C1=O (stereo not drawn) |  | > 100 µM |  | > 100 |  | > 100 µM |  | > 100 |  | > 100 |  | > 100 µM |  | > 100 |  | > 100 µM |  | > 100 µM |  | 
25 | C[C@]12CCC3c4ccc(O)cc4CCC3C1Cc1ccc(O)cc12 (stereo partly drawn) | 12.1 | 26 µM | 6240 | 18.9 | 3.52 | 13.2 µM | 12.7 | 27.9 | 794 | 11.2 | 19 | 36.6 µM |  |  | 8.72 | 22.7 µM | 14.3 | 36.4 µM | 2.44 | 11.1
26 | COc1cc(/C=C/c2ccc(OC(C)=O)cc2)cc(OC)c1OC |  | 67.2 µM |  | > 100 |  | > 100 µM |  | 80.2 |  | > 100 |  | > 100 µM |  | 39.2 |  | > 100 µM |  |  |  | 
27 | Cc1ccc(S(=O)(=O)SCc2ccccc2CSS(=O)(=O)c2ccc(C)cc2)cc1 |  | 31.1 µM |  | > 100 |  | 59.6 µM |  | 51.7 |  | 47 |  | > 100 µM |  | 29.6 |  | 36.6 µM |  | > 100 µM |  | 
28 | COc1cc2c(c(OC)c1OC)-c1ccc(SC)c(=O)cc1[C@@H](NCc1cccc(C#N)c1)CC2 | < 0.0075 | 0.0593 µM and < 0.0075 µM | < 7.5 | > 75 | < 0.0075 |  | < 0.0075 | > 75 | < 7.5 | 18.2 | < 0.0075 | 0.0545 µM and < 0.0075 µM |  |  |  |  | < 0.0075 |  |  | 
29 | CCC[CH2][Ge]([CH2]CCC)([CH2]CCC)[O]C(=O)C(O)c1ccccc1 (stereo not drawn) | 2.33 | 12 µM | 309 | 15 | 0.571 | 13.8 µM | 0.49 | 15.8 | 443 | 19.9 | 1.2 | 27.9 µM |  | 1.06 | 12.7 | 29.8 µM | 9.27 | 35.6 µM |  | 
30 | CC(=O)Nc1ccccc1-c1cnc2ccccc2n1 |  | > 100 µM |  | > 100 |  | > 100 µM |  | > 100 |  | > 100 |  | > 100 µM |  |  |  | > 100 µM |  | > 100 µM |  | 
31 | O=Cc1ccc(Oc2c3ccccc3nc3occc23)cc1 | 21.8 | 63 µM |  |  | 15.3 | 28.7 µM |  |  | 22600 | > 100 |  |  | 2320 | 9.17 | 17.9 | 34.3 µM | 21.6 | 57 µM | 6.49 | 24.7
32 | CC(=O)OC1C/C(C)=C/CCC(C)/C=C/C2(C)CCC(C(C)(C)O)C12 (stereo not drawn) |  | > 100 µM |  | > 100 |  | 77.1 µM |  | 51.4 |  | > 100 |  | > 100 µM |  | 53.3 |  | > 100 µM |  | > 100 µM |  | 
